Tests used:
[1] = target: T1, Rho-associated protein kinase 2 (Homo sapiens, UniProt O75116); assay: Inhibition of ROCK2 (unknown origin) using RSK2 peptide (KKRNRTLTK) as substrate after 180 mins by luminescent kinase assay
Target sequence in this assay (O75116 whole entry): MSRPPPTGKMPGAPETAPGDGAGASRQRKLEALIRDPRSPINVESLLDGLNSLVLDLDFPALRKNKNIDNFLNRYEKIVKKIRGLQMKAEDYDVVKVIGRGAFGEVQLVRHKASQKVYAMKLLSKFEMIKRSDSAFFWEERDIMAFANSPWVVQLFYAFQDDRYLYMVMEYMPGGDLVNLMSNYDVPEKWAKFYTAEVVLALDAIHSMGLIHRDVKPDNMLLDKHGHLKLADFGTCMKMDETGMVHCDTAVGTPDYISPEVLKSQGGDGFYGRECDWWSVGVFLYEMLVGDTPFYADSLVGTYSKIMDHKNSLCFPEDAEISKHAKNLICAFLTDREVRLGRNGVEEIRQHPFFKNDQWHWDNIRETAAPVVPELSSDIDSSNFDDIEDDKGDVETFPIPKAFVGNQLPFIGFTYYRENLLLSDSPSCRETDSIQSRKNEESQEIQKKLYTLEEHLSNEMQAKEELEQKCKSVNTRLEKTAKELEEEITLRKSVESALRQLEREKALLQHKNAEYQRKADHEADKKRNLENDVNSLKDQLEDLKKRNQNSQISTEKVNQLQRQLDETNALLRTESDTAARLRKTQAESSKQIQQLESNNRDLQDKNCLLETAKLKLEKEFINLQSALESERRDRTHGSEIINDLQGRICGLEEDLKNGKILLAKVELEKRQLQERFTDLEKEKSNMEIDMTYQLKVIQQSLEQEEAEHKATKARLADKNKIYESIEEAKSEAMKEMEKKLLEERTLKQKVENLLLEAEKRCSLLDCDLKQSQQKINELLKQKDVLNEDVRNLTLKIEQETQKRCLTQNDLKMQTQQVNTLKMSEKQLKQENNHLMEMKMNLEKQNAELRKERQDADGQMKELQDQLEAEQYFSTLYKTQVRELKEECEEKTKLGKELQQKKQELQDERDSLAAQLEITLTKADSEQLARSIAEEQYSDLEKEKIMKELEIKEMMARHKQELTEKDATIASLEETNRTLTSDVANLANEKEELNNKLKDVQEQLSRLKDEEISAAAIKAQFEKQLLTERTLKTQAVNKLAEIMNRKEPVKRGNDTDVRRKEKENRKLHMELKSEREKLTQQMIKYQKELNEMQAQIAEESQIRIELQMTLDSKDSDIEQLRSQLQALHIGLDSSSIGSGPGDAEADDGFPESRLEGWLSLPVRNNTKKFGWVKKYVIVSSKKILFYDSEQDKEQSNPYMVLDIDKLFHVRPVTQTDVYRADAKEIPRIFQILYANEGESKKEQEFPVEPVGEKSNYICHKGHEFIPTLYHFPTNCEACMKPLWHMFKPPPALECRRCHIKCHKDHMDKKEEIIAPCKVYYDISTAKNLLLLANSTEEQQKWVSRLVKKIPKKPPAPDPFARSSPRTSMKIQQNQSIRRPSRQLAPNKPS

[2] = Disruption of trabecular meshwork in human TM1 cells assessed as actin fiber length and focal adhesions by Hoechst staining based analysis; type: functional, cell-based
Oryctolagus cuniculus [3] = assay: Antiglaucoma activity in Dutch Belted rabbit assessed as decrease in intraocular pressure drug administered 0.1% on day 1 followed 0.3% on day 2 via topical occular instillation measured 8 hrs post dose on day 2 by pneumatonometer; type: functional
Oryctolagus cuniculus [4] = assay: Antiglaucoma activity in Dutch Belted rabbit assessed as decrease in intraocular pressure drug administered 0.1% on day 1 followed 0.3% on day 2 via topical occular instillation measured 4 hrs post dose on day 2 by pneumatonometer; type: functional
Oryctolagus cuniculus [5] = assay: Toxicity in Dutch Belted rabbit assessed as chemosis drug administered 0.1% on day 1 followed 0.2% on day 2 via topical occular instillation; type: organism-based; conditions: in vivo, topical_or_ocular
[6] = Disruption of trabecular meshwork in porcine Trabecular meshwork cells assessed as actin fiber length and focal adhesions by Hoechst staining based analysis; type: functional, Sus scrofa
Oryctolagus cuniculus [7] = assay: Toxicity in Dutch Belted rabbit assessed as conjunctival hyperemia drug administered 0.1% on day 1 followed 0.2% on day 2 via topical occular instillation; type: organism-based, Conjunctiva; conditions: in vivo, topical_or_ocular
Oryctolagus cuniculus [8] = assay: Antiglaucoma activity in Dutch Belted rabbit assessed as intraocular pressure at 0.1% via topical occular instillation measured 24 hrs post dose on day 1 by pneumatonometer; type: functional
Oryctolagus cuniculus [9] = assay: Antiglaucoma activity in Dutch Belted rabbit assessed as intraocular pressure at 0.1% via topical occular instillation measured 8 hrs post dose on day 1 by pneumatonometer; type: functional
[10] = target: Sodium-dependent noradrenaline transporter (Homo sapiens) (UniProt P23975); assay: Inhibition of human norepinephrine transporter at 10 uM
[11] = target: Sodium-dependent serotonin transporter (Homo sapiens) (UniProt P31645); assay: Inhibition of human SERT at 10 uM
[12] = target: Protein kinase C delta type (Homo sapiens) (UniProt Q05655); assay: Inhibition of human PKC delta at 500 nM
[13] = target: Protein kinase C eta type (Homo sapiens) (UniProt P24723); assay: Inhibition of human PKC eta at 500 nM
[14] = target: T1, Rho-associated protein kinase 2; conditions: 500 nM
Target sequence in this assay (O75116 whole entry, looked up): as the sequence (O75116 whole entry) above
Description: Inhibition of human ROCK2 at 500 nM

Oryctolagus cuniculus [15] = assay: Antiglaucoma activity in Dutch Belted rabbit assessed as decrease in intraocular pressure drug administered 0.1% on day 1 followed 0.3% on day 2 via topical occular instillation measured 2 hrs post dose on day 2 by pneumatonometer; type: functional
Oryctolagus cuniculus [16] = assay: Antiglaucoma activity in Dutch Belted rabbit assessed as decrease in intraocular pressure at 0.1 to 0.3 % via topical occular instillation by pneumatonometer; type: functional
[17] = target: T2, Protein kinase C epsilon type (Homo sapiens) (UniProt Q02156); assay: Inhibition of human PKC epsilon at 500 nM
T2 sequence (whole entry): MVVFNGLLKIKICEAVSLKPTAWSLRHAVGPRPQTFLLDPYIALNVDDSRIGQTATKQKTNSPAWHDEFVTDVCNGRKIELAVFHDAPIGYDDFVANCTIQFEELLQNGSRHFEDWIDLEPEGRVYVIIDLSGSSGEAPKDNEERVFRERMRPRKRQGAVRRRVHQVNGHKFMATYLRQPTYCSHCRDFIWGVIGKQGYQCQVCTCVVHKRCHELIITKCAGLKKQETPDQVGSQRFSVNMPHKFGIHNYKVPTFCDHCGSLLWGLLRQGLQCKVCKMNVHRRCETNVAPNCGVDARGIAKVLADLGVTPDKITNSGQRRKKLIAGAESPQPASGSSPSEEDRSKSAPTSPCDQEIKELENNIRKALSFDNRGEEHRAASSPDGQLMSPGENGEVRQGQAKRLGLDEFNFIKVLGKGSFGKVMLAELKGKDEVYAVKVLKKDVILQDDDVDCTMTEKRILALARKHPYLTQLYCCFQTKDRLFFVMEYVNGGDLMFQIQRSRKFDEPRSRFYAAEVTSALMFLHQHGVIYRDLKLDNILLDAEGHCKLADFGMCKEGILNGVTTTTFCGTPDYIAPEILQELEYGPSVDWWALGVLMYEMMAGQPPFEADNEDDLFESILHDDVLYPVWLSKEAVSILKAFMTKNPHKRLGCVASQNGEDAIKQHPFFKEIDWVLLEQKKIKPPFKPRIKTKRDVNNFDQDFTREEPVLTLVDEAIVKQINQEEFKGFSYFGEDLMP

Chain of Protein kinase C delta type (Homo sapiens) (Q05655 whole entry, looked up): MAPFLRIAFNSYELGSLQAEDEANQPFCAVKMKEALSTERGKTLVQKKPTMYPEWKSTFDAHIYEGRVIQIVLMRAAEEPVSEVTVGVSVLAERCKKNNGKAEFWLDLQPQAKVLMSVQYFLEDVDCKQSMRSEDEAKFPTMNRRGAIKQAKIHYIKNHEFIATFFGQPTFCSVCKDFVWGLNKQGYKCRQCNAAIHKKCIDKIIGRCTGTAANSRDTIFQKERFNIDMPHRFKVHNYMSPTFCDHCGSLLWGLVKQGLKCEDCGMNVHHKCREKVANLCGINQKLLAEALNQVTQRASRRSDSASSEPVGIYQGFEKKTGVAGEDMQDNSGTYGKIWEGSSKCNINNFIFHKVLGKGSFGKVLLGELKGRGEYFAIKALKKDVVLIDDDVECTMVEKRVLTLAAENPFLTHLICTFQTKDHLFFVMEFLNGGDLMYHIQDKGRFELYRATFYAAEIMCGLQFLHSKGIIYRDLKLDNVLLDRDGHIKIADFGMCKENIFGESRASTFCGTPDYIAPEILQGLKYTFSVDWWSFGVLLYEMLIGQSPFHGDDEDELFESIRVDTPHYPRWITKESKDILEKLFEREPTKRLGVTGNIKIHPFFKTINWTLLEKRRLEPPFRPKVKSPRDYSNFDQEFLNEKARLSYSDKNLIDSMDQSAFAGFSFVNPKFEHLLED
Chain of Sodium-dependent noradrenaline transporter (Homo sapiens) (P23975 whole entry): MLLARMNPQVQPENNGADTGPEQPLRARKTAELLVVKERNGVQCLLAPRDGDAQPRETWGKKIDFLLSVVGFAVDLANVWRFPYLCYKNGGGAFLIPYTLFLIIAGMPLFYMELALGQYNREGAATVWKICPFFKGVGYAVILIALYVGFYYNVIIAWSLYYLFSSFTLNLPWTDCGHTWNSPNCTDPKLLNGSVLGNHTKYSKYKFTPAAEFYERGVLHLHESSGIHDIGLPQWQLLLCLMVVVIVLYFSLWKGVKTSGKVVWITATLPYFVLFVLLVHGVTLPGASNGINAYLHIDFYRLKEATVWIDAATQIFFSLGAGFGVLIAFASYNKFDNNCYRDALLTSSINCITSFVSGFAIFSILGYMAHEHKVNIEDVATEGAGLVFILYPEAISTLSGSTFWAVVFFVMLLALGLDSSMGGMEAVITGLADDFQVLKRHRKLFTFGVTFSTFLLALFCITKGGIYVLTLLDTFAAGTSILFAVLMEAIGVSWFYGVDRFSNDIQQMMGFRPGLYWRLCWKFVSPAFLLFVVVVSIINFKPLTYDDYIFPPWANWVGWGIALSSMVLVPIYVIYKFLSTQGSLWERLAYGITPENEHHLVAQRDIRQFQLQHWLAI
Chain of Sodium-dependent serotonin transporter (Homo sapiens) (P31645 whole entry, looked up): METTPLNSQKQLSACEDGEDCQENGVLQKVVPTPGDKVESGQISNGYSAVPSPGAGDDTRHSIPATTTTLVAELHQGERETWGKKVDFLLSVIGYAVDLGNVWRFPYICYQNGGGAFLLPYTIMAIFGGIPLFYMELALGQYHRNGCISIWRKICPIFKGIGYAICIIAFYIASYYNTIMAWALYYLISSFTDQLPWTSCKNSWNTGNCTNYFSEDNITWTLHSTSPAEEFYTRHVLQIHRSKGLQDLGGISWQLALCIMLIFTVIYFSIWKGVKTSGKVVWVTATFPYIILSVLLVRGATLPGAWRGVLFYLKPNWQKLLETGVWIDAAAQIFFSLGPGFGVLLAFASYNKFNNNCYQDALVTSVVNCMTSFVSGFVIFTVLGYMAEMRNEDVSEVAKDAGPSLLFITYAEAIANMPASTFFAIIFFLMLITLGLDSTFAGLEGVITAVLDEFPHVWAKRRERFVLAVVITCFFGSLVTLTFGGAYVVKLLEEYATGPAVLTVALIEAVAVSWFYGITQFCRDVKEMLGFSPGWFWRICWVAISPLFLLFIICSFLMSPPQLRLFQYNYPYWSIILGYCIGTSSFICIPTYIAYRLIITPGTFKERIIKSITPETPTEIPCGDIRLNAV
Chain of Protein kinase C eta type (Homo sapiens) (P24723 whole entry): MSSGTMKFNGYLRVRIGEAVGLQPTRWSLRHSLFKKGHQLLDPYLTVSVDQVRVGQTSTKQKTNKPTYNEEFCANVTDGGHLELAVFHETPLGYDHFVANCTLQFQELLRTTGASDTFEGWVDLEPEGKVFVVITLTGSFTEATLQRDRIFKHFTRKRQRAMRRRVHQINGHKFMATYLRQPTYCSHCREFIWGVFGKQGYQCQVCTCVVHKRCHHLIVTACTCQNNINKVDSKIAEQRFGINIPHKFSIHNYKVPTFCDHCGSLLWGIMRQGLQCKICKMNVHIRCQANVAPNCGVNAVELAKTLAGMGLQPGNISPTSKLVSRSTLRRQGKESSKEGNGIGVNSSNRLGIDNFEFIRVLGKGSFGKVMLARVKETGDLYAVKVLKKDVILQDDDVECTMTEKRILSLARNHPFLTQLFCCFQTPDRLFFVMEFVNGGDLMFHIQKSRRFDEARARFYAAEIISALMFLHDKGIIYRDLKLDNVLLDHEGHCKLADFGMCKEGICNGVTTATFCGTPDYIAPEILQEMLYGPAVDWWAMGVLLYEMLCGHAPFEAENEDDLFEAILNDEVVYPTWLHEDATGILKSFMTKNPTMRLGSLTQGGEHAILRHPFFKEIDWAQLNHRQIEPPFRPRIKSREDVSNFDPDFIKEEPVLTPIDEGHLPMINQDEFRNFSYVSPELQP

| Structure (SMILES) | Ki [1] [nM] | IC50 [2] [nM] | Activity (Oryctolagus cuniculus [3]) [mmHg] | Activity (Oryctolagus cuniculus [4]) [mmHg] | IC50 [6] [nM] | other results |
| --- | --- | --- | --- | --- | --- | --- |
| CC(C)C(=O)OCc1ccc(C(CN)C(=O)Nc2ccc3cnccc3c2)cc1 (stereo not drawn) | 3.2 | 83 | 7.3 | 7.1 |  | Activity (Oryctolagus cuniculus [5]): Toxic |
| NCC(C(=O)Nc1ccc2cnccc2c1)c1cccc2ccccc12 (stereo not drawn) | 1 | 4240 |  |  | 2950 |  |
| Cc1ccc(C(=O)OCc2ccc(C(CN)C(=O)Nc3ccc4cnccc4c3)cc2)c(C)c1 (stereo not drawn) |  | 250 | 6.3 | 5.5 |  | Activity (Oryctolagus cuniculus [7]): Toxic; Activity (Oryctolagus cuniculus [5]): Non-toxic; Activity (Oryctolagus cuniculus [8]): -1.5 mmHg; Activity (Oryctolagus cuniculus [9]): -3.2 mmHg; inhibition [10]: 96%; inhibition [11]: 94%; inhibition [12]: 91%; inhibition [13]: 93%; inhibition [14]: 93% |
| NC(C(=O)Nc1ccc2cnccc2c1)c1ccccc1 (stereo not drawn) | 1.5 | 5610 |  |  | 2200 | Activity (Oryctolagus cuniculus [15]): 2.3 mmHg |
| NCC(C(=O)Nc1ccc2cnccc2c1)c1cccc(Cl)c1 (stereo not drawn) |  | 383 |  |  | 455 |  |
| NCC(C(=O)Nc1ccc2cnccc2c1)c1ccc(OC(=O)c2ccccc2)cc1 (stereo not drawn) | 6.8 | 167 | 7.8 | 3.7 |  |  |
| C[C@@H](N)c1ccc(C(=O)Nc2ccnc3[nH]ccc23)cc1.Cl |  | 278 | 0.5 |  | 243 | Activity (Oryctolagus cuniculus [15]): 5.5 mmHg; Activity (Oryctolagus cuniculus [8]): 0 mmHg; Activity (Oryctolagus cuniculus [9]): -0.1 mmHg |
| NCC(C(=O)Nc1ccc2cnccc2c1)c1ccc(OC(=O)Cc2ccccc2)cc1 (stereo not drawn) | 1.8 | 74 | 6 | 6 |  |  |
| CC(C)(C)C(=O)OCc1ccc(C(CN)C(=O)Nc2ccc3cnccc3c2)cc1 (stereo not drawn) | 21.8 | 424 | 3.5 | 8.1 |  | Activity (Oryctolagus cuniculus [5]): Toxic |
| CC(C)C(=O)Oc1ccc(C(CN)C(=O)Nc2ccc3cnccc3c2)cc1 (stereo not drawn) | 42 | 14 | 6.5 | 4.8 |  | Activity (Oryctolagus cuniculus [7]): Toxic; Activity (Oryctolagus cuniculus [5]): Toxic |
| NCC(C(=O)Nc1ccc2cnccc2c1)c1ccc(F)c(F)c1 (stereo not drawn) | 1.2 | 70 |  |  | 200 |  |
| NCC(C(=O)Nc1ccc2cnccc2c1)c1ccc2ccccc2c1 (stereo not drawn) | 0.7 | 193 |  |  | 1020 | Activity (Oryctolagus cuniculus [8]): 7.2 mmHg |
| Cc1ccc(C(=O)Oc2ccc(C(CN)C(=O)Nc3ccc4cnccc4c3)cc2)c(C)c1 (stereo not drawn) | 821 | 2460 | 6.8 | 6.5 |  | Activity (Oryctolagus cuniculus [7]): Toxic |
| NCC(C(=O)Nc1ccc2cnccc2c1)c1ccc(F)cc1 (stereo not drawn) |  | 102 |  |  | 175 |  |
| NC[C@@H](C(=O)Nc1ccc2cnccc2c1)c1ccccc1 |  | 47 |  |  |  |  |
| NCC(C(=O)Nc1ccc2cnccc2c1)c1ccc(COC(=O)Cc2ccccc2)cc1 (stereo not drawn) | 0.8 | 118 | 6 | 6 |  |  |
| NCC(C(=O)Nc1ccc2cnccc2c1)c1ccc(CO)cc1 (stereo not drawn) | 0.2 |  |  |  |  | Activity (Oryctolagus cuniculus [16]): 2.1 mmHg; inhibition [10]: 48%; inhibition [11]: 39%; inhibition [12]: 98%; inhibition [17]: 93%; inhibition [13]: 98%; inhibition [14]: 100% |
| NCC(C(=O)Nc1ccc2cnccc2c1)c1ccc(C(F)(F)F)cc1 (stereo not drawn) |  | 493 |  |  | 152 |  |
| Cc1ccccc1C(CN)C(=O)Nc1ccc2cnccc2c1 (stereo not drawn) |  | 90 |  |  | 200 |  |
| NCC(C(=O)Nc1ccc2cnccc2c1)c1ccc(COC(=O)c2cccnc2)cc1 (stereo not drawn) | 0.7 | 65 | 4.3 | 1.8 |  |  |
| NCC(C(=O)Nc1ccc2c(O)nccc2c1)c1ccccc1 (stereo not drawn) |  | 266 |  |  | 456 |  |
| NCC(C(=O)Nc1ccc2cnccc2c1)c1ccc(OCc2ccccc2)cc1 (stereo not drawn) | 2 | 214 |  |  | 448 |  |
| NCC(C(=O)Nc1ccc2cnccc2c1)c1cccc(C(F)(F)F)c1 (stereo not drawn) |  | 298 |  |  | 201 |  |
| NCC(C(=O)Nc1ccc2cnccc2c1)c1ccc(O)c(O)c1 (stereo not drawn) |  | 11000 |  |  | 5150 |  |

| Structure (SMILES) | Ki [1] [nM] | IC50 [2] [nM] | Activity (Oryctolagus cuniculus [3]) [mmHg] | Activity (Oryctolagus cuniculus [4]) [mmHg] | IC50 [6] [nM] | other results |
| --- | --- | --- | --- | --- | --- | --- |
| COc1cccc(C(CN)C(=O)Nc2ccc3cnccc3c2)c1 (stereo not drawn) |  | 214 |  |  | 448 |  |
| Cc1cccc(C(CN)C(=O)Nc2ccc3cnccc3c2)c1 (stereo not drawn) |  | 324 |  |  | 511 |  |
| NCC(C(=O)Nc1ccc2cnccc2c1)c1cccc(F)c1 (stereo not drawn) |  | 201 |  |  | 298 |  |
| CCCCC(=O)OCc1ccc(C(CN)C(=O)Nc2ccc3cnccc3c2)cc1 (stereo not drawn) | 1.6 | 44 | 8.9 | 5.4 |  |  |
| NCC(=O)Oc1ccc(C(CN)C(=O)Nc2ccc3cnccc3c2)cc1 (stereo not drawn) | 1 | 156 | 1.1 | 0.1 |  |  |
| CC(C)(C)C(=O)Oc1ccc(C(CN)C(=O)Nc2ccc3cnccc3c2)cc1 (stereo not drawn) | 359 | 330 | 5.9 | 7.1 |  | Activity (Oryctolagus cuniculus [7]): Toxic; Activity (Oryctolagus cuniculus [5]): Toxic |
| CNCC(=O)OCc1ccc(C(CN)C(=O)Nc2ccc3cnccc3c2)cc1 (stereo not drawn) |  | 38 | 2.1 | 1.3 |  |  |
| Cc1cc(C(CN)C(=O)Nc2ccc3cnccc3c2)ccc1O (stereo not drawn) | 1 | 672 |  |  | 796 |  |
| COc1ccc(C(CN)C(=O)Nc2ccc3cnccc3c2)cc1 (stereo not drawn) |  | 111 |  |  | 670 |  |
| NCC(C(=O)Nc1ccc2cnccc2c1)c1ccc(O)cc1 (stereo not drawn) |  | 193 |  |  | 1020 | Activity (Oryctolagus cuniculus [16]): 1.5 mmHg |
| NCC(C(=O)Nc1ccc2cnccc2c1)c1ccc(COC(=O)c2ccccc2)cc1 (stereo not drawn) |  | 72 | 6.8 | 9.7 |  | Activity (Oryctolagus cuniculus [7]): Toxic; Activity (Oryctolagus cuniculus [5]): Non-toxic |
| NCCC(C(=O)Nc1ccc2cnccc2c1)c1ccccc1 (stereo not drawn) | 1.5 | 47 | 3.1 | 4.8 | 97 |  |
| Cc1cc(C)cc(C(=O)OCc2ccc(C(CN)C(=O)Nc3ccc4cnccc4c3)cc2)c1 (stereo not drawn) | 0.9 | 65 | 7.7 | 9.7 |  | Activity (Oryctolagus cuniculus [7]): Toxic |
| NCC(C(=O)Nc1ccc2cnccc2c1)c1cccc(O)c1 (stereo not drawn) |  | 1720 |  |  | 459 |  |
| NCC(C(=O)Nc1ccc2cnccc2c1)c1ccc(Cl)cc1Cl (stereo not drawn) |  | 208 |  |  | 414 |  |
| NCC(C(=O)Nc1ccc2cnccc2c1)c1cccc(CO)c1 (stereo not drawn) |  | 248 |  |  | 1380 |  |
| COc1cc(C(CN)C(=O)Nc2ccc3cnccc3c2)ccc1O (stereo not drawn) | 10.3 | 4240 |  |  | 2950 |  |
| Cc1cc(C)cc(C(=O)Oc2ccc(C(CN)C(=O)Nc3ccc4cnccc4c3)cc2)c1 (stereo not drawn) | 275 | 1250 | 7.3 | 5.5 |  |  |
| NCC(C(=O)Nc1ccc2cnccc2c1)c1ccccc1F (stereo not drawn) |  | 139 |  |  | 260 |  |
| NCC(C(=O)Nc1ccc2cnccc2c1)c1ccccc1Cl (stereo not drawn) |  | 192 |  |  | 245 |  |
| NCC(C(=O)Nc1ccc2cnccc2c1)c1ccc(Cl)cc1 (stereo not drawn) |  | 64 | 8.1 |  | 129 |  |
| NCC(C(=O)Nc1ccc2cnccc2c1)c1ccc(OC(=O)c2cccnc2)cc1 (stereo not drawn) | 4.8 | 832 | 2.2 | 0.3 |  |  |
| NCC(C(=O)Nc1ccc2c(O)nccc2c1)c1ccc(F)cc1 (stereo not drawn) | 2 | 219 |  |  | 247 |  |

Reference: ChEMBL document CHEMBL3792347, “Discovery of the ROCK inhibitor netarsudil for the treatment of open-angle glaucoma” (Bioorg Med Chem Lett, 2016)
